Reference: patent publication US4946842A, “Novel guanidino pyridazinones as cardiac stimulants” (Smith Kline & French Laboratories Limited, priority 1985, dated 1990)

Legend:
ventricular strips = experiment: Cardiac stimulant activity in vitro: force of contraction of electrically stimulated ventricular strips; type: cell-based; settings: Cavia porcellus, read-out: EC50 (50% increase in the force of contraction of the ventricular strips); guinea pig ventricular strips, 37° C., 1.0 Hz, cumulative concentration response
Experimental: The compounds of formula (I) and their pharmaceutically acceptable salts are tested for cardiac stimulant activity following a procedure based on that of S. C. Verma and J. H. McNeill (J.Pharm & Exp. Therapeutics, 200, 352-362 (1977)). Guinea pigs (500-700 g) of either sex are sacrificed and the hearts are quickly removed and transferred to a dissecting dish containing oxygenated bathing fluid. While in the bathing medium, the right ventricle is cut into two strips. The strips are each suspended in a 50 ml bath containing Krebs Henseleit solution at 37° C., and the bath is bubbled with 95% oxygen and 5% carbon dioxide. The ventricular strips are electrically stimulated at a frequency of 1.0 Hz, at double the threshold voltage. A resting tension of 1.0 g is applied to the strips and the tension is kept constant by readjustment during an equilibration period of 60 minutes. The bathing fluid is frequently changed during this period. When a steady base line is obtained, a compound under test is added to the bathing fluid and a cumulative concentration response curve is plotted. The compounds for use in the present invention which were tested gave a 50% increase in the force of contraction of the ventricular strips at concentrations in the bathing fluid of less than 10^-4 molar, thus showing that they have activity as positive inotropic agents.

PDE (Peak III) = experiment: Inhibition of PDE (Peak III); settings: read-out: IC50 (PDE Peak III); 1 μM cyclic AMP
Experimental: (§1) The enzyme was assayed by incubation at 37° for 4-30 min in 50 mM Tris, 5 mM MgCl2, pH 7.5 with [3-H] cyclic nucleotide (4×10^5 disintegrations min^-1) and [14-C] nucleotide 5' monophosphate (3×10^3 disintegrations min^-1). The assay was stopped by boiling, and the [3-H] […] The reaction mixture was diluted with 0.5 ml 100 mM HEPES (N-2-Hydroxyethylpiperazine-N'-2-ethanesulfonic acid), 100 mM NaCl, pH 8.5, and applied to the column. […] The recovery of product as judged by [14-C] recovery was approximately 80%. All assays were linear with time of incubation and concentration of enzyme over the range used in these experiments.

[1] = system: left ventricular dp/dt max; experiment: Cardiac stimulant activity in vivo (anaesthetised cats): left ventricular dp/dt max; design: species or system cat; settings: Felis catus, iv, read-out: ED50 (dose to increase left ventricular dp/dt max by 50%), i.v., pretreated with ganglion blocker and propranolol
Text: Cardiac Stimulant Activity--In vivo (Anaesthetised Cats)
# Relative duration was estimated in the anaesthetised cats following the

PDE (Peak I) = experiment: Substrate kinetics of PDE (Peak I); type: biochemical, cat; settings: for Relative Vmax: PDE (Peak I), eluted at 0.15 M Na acetate
PDE (Peak II) = settings: in words
Experimental: as §1

SMILES	EC50 (ventricular strips)	ED50 [1]	other results
CC(=O)N=C(N)Nc1ccc(C2=NNC(=O)CC2C)cc1 (stereo not shown) [Example 1, 6-[4-(N^2-acetylguanidino)phenyl]-5-methyl-4,5-dihydro-3(2H)-pyridazinone]	16 µM	0.5 µmol/kg	IC50 (PDE (Peak III)): 2.23 µM
CNC(=NS(C)(=O)=O)Nc1ccc(C2=NNC(=O)CC2C)cc1 (stereo not shown) [Example 2, 6-[4-(N^3-methyl-N^2-methylsulphonylguanidino)phenyl]-5-methyl-4,5-dihydro-3(2H)-pyridazinone]	–	0.2 µmol/kg	IC50 (PDE (Peak III)): 2.48 µM
CNC(=NS(=O)(=O)c1ccccc1)Nc1ccc(C2=NNC(=O)CC2C)cc1 (stereo not shown) [Example 3, 6-[4-(N^ 3-methyl-N^2-phenylsulphonylguanidino)phenyl]-5-methyl-4,5-dihydro-3(2H)-pyridazinone]	–	0.1 µmol/kg	IC50 (PDE (Peak III)): 0.23 µM
COCCNC(=NC#N)Nc1ccc(C2=NNC(=O)CC2C)cc1 (stereo not shown) [Example 4, 6-[4-(N^3-(2-Methoxyethyl)-N^2-cyanoguanidino)phenyl]-5-methyl-4,5-dihydro-3(2H)-pyridazinone]	2.8 µM	0.2 µmol/kg	–
CC1CC(=O)NN=C1c1ccc(NC(=NC#N)NCCO)cc1 (stereo not shown) [Example 5, 6-[4-(N^3-(2-Hydroxyethyl)-N^2-cyanoguanidino)phenyl]-5-methyl-4,5-dihydro-3(2H)-pyridazinone]	8 µM	0.7 µmol/kg	–
CC1CC(=O)NN=C1c1ccc(NC(=NC#N)NC2CC2)cc1 (stereo not shown) [Example 6]	10 µM	0.4 µmol/kg	–
C=CCNC(=NC#N)Nc1ccc(C2=NNC(=O)CC2C)cc1 (stereo not shown) [Example 7, 6-[4-(N^3 -Allyl-N^2-cyanoguanidino)phenyl]-5-methyl-4,5-dihydro-3(2H)-pyridazinone]	10 µM	0.3 µmol/kg	–
C#CCNC(=NC#N)Nc1ccc(C2=NNC(=O)CC2C)cc1 (stereo not shown) [Example 8, 6-[4-(N^3 -Propargyl-N^2-cyanoguanidino)phenyl]-5-methyl-4,5-dihydro-3(2H)-pyridazinone]	18 µM	0.4 µmol/kg	–
CC1CC(=O)NN=C1c1ccc(NC(=NC#N)NCc2ccc(O)cc2)cc1 (stereo not shown) [Example 9, 6-[4-(N^3-(4-Hydroxybenzyl)-N^2-cyanoguanidino)phenyl]-5-methyl-4,5-dihydro-3(2H)-pyridazinone]	–	0.4 µmol/kg	IC50 (PDE (Peak III)): 0.08 µM
COc1ccc(CNC(=NC#N)Nc2ccc(C3=NNC(=O)CC3C)cc2)cc1 (stereo not shown) [Example 11, 6-[4-(N^3-(4-Methoxybenzyl)-N^2-cyanoguanidino)phenyl]-5-methyl-4,5-dihydro-3(2H)-pyridazinone]	–	0.5 µmol/kg	–
Nc1nc2c(ncn2[C@@H]2O[C@@H]3COP(=O)(O)O[C@H]3[C@H]2O)c(=O)[nH]1 [cyclic GMP]	–	–	Relative Vmax (PDE (Peak I); 50 μg/ml calmodulin added): 7.2; Relative Vmax (PDE (Peak I); without calmodulin): 1.1; affinity of PDE (Peak I) (PDE (Peak I); in words): high affinity; affinity of PDE (Peak II) (PDE (Peak II)): relatively low affinities

The next lines start with results.

EC50 (ventricular strips)	SMILES	ED50 [1]	other results
0.8 µM	CC1CC(=O)NN=C1c1ccc(NC(=NC#N)NCc2ccccc2)cc1 (stereo not shown) [Example 10, 6-[4-(N^3 -Benzyl-N^2-cyanoguanidino)phenyl]-5-methyl-4,5-dihydro-3(2H)-pyridazinone]	0.1 µmol/kg	–
12 µM	CC1CC(=O)NN=C1c1ccc(NC(=NC#N)NCc2ccccn2)cc1 (stereo not shown) [Example 12, 6-[4-(N^3-(2-Pyridylmethyl)-N^2-cyanoguanidino)phenyl]-5-methyl-4,5-dihydro-3(2H)-pyridazinone]	–	–
12.5 µM	CC1CC(=O)NN=C1c1ccc(NC(=NC#N)NCCc2ccccc2)cc1 (stereo not shown) [Example 13, 6-[4-(N^3 -Phenethyl-N^2-cyanoguanidino)phenyl]-5-methyl-4,5-dihydro-3(2H)-pyridazinone]	–	–
